Experimental data: patent US20180238860A1, “INDIVIDUAL METHOD PREDICTIVE OF THE DNA-BREAKING GENOTOXIC EFFECTS OF CHEMICAL OR BIOCHEMICAL AGENTS” (priority 2015, published 2018)

How the values were obtained:
Assay type in all cases: cell-based, human
MRC9 (control cells) = assay: pH2AX foci immunofluorescence 24 h after contacting, MRC9 control fibroblasts; conditions: for pH2AX(24 h) + 2xSEM / pH2AX(24 h): MRC9; for pH2AX(24 h): 24 hours after contacting
Experimental: (§1) the cells are fixed in 3% paraformaldehyde and 2% sucrose for 15 minutes at ambient temperature and permeabilized in 20 mM HEPES buffer solution (4-(2-hydroxyethyl)-1-piperazine ethane sulfonic acid) at pH 7.4, 50 mM NaCl, 3 mM MgCl2, 300 mM sucrose, 0.5% Triton X-100 (a non-ionic surfactant having the formula t-Oct-C6H4-(OCH2CH2)×OH where x=9-10, CAS No. 9002-93-1, supplied for example by Sigma Aldrich) for 3 minutes. The glass coverslips are then washed in phosphate buffer saline (known as the acronym PBS) before immunological staining. The incubation took place for 40 min at 37° C. in PBS supplemented with 2% bovine serum albumin (known as the acronym BSA or fraction V, supplied for example by Sigma Aldrich) and was followed by a wash with PBS. Anti-pH2AX primary antibodies are used at a concentration of 1:800. The incubations with anti-mouse FITC or anti-rabbit TRITC secondary antibodies (1:100, supplied by Sigma Aldrich) were performed at 37° C. in 2% BSA for 20 minutes. Glass coverslips were treated with Vectashield™ containing DAPI (4,6-Diamidino-2-phenylindole) to label the nucleus. Staining with DAPI also makes it possible, indirectly, to determine the number of cells in phase G1 (nuclei with homogenous DAPI staining), in phase S (nuclei with numerous pH2AX foci), in phase G2 (nuclei with heterogeneous DAPI staining) and metaphases (visible chromosomes).
Commercial MRC9 control fibroblasts were amplified according to the recommendations of the supplier (SIGMA-ALDRICH) until the number of cells sought was obtained. After obtaining a sufficient number of cells (generally after one to 3 weeks), the first experiments were conducted using the process according to the invention. The cells were inoculated on glass coverslips in Petri dishes. A portion of these coverslips was then contacted with the medium under test comprising 5FU at a given concentration presented in table 2 hereinafter.
(§2) After contacting with 5FU at a given concentration, the cells were stored in the culture incubator at 37° C. 24 hours after contacting with 5FU at a given concentration as presented in table 2, the mean number of nuclear foci obtained with the marker pH2AX was acquired. The acquisition of the results was carried out using these coverslips on an immunofluorescence microscope (Olympus model). The reading was performed directly by counting the foci obtained with the marker pH2AX on at least 50 cells in G0/G1 for each point or using dedicated image analysis software (imageJ).
In order to obtain results of sufficient statistical reliability to serve as a basis for diagnosis, 3 independent series of experiments were performed. The mean and standard errors of the mean (“SEM” or σ) of each of the numbers of foci acquired after 24 hours of contacting the control cells with 5FU at a given concentration was calculated and presented in table 2.

GM02718 cells = assay: pH2AX foci immunofluorescence 24 h after contacting, GM02718 cell line; conditions: for pH2AX(24 h) + 2xSEM / pH2AX(24 h): GM002718; for pH2AX(24 h): 24 hours after contacting
Experimental: as §1
The cell line GM02718 was amplified according to the recommendations of the supplier (Coriell Institute) until the number of cells sought was obtained.
(§3) After obtaining a sufficient number of cells (generally after one to 3 weeks), the first experiments were conducted using the process according to the invention. The GM02718, or 03HLS, line cells were inoculated on glass coverslips in Petri dishes. A portion of these coverslips was then contacted with 5FU at a concentration of 30 μM. By way of verification, a further portion of these coverslips was contacted with 5FU at a given concentration (see table 2, see FIG. 2 (B) for the cell line GM02718, respectively FIG. 2 (C) for the cell line 03HLS).
as §2
(§4) In order to obtain results of sufficient statistical reliability to serve as a basis for diagnosis, 3 independent series of experiments were performed. The mean and standard errors of the mean (“SEM” or σ) of each of the numbers of foci acquired after 24 hours of contacting the control cells with 5FU at a given concentration was calculated and presented in table 2 and in FIG. 2 (B) for the cell line GM02718, respectively FIG. 2 (C) for the cell line 03HLS.

03HLS cells = assay: pH2AX foci immunofluorescence 24 h after contacting, 03HLS patient skin cell line; conditions: for pH2AX(24 h): 24 hours after contacting
Experimental: as §1
For the line 03 HLS, a skin cell sample from a patient was sampled by biopsy via the “skin punch” method known to those skilled in the art. The cell sample was then placed in DMEM medium+20% sterile fetal calf serum. The cell sample was then transferred without delay to a specialized laboratory, so that the sample remained not more than 38 hours at ambient temperature.
On receipt, the cell sample from the biopsy was established in the form of an amplifiable 03HLS cell line according to a procedure well known to culture laboratories and those skilled in the art: using particularly the trypsin dispersion, the cells are once again diluted in replenished medium and so on until the number of cells sought is obtained.
as §3, §2, §4

HMEC cells [1] = assay: pH2AX foci 24 h after contacting, Table 4 lower part (HMEC endothelial cells); conditions: line cell blank (below Hasp), 24 hours after contacting
Experimental: (§5) In one embodiment, on receipt, the tissue sample (typically the biopsy) is established in the form of an amplifiable cell line without a viral or chemical transformation agent according to an ancillary procedure well known to culture laboratories, as underlined by the publication of Elkind et al. “The radiobiology of cultured mammalian cell”, Gordon and Breach (1967). Once the number of cells is sufficient (typically after 1 to 3 weeks), the first experiments are carried out using the process according to the invention. A cell sample is prepared: The cells are inoculated on glass coverslips in Petri dishes. A portion of these coverslips are contaminated with metals or pesticides or any other DNA-breaking chemical or biochemical agent at different concentrations. A further portion is not contaminated; it represents the spontaneous state. During contamination, the cells remain in the culture incubator at 37° C.
For the contaminated cells, characteristics are acquired corresponding to the state after an incubation time with the DNA-breaking chemical or biochemical agent. Said characteristics are represented by foci corresponding to the marker pH2AX. The cells on glass coverslips are then fixed, lysed and hybridized. The following procedure, known per se (Bodgi et al, “A single formula to describe radiation-induced protein relocalization: towards a mathematical definition of individual radiosensitivity”, J Theor Biol. 21 p 333:135-45.2013):
as §1
The results are acquired using these coverslips on an immunofluorescence microscope (Olympus model for example). The reading may be direct (typically by counting the foci on at least 50 cells in G0/G1 for each point) or using dedicated image analysis software, or on an automated microscope; preferably the software or automated microscope methods are calibrated with manual determinations.
(§6) The tables hereinafter summarize the results of numerous experiments which were carried out as described in the “Detailed description” section above.
(§7) In tables 3 and 4, “pH2AX” corresponds to the mean number of nuclear foci obtained with the marker pH2AX, 24 hours after contacting the cell sample with the chemical agent at the concentration C (NpH2AX(24 h, C)), and where “Micronuclei” corresponds to the mean number of micronuclei observed per 100 cells 24 hours after contacting the cell sample with the chemical agent at the concentration C(NMN(24 h, C)).

HMEC cells [2] = assay: Micronuclei per 100 cells 24 h after contacting, Table 4 lower part (HMEC); conditions: line cell blank (below Hasp)
Experimental: as §5, §1
Counterstaining with DAPI (a DNA marker known to those skilled in the art) makes it possible to locate the nucleus to situate the cytoplasmic or nuclear location to quantify the micronuclei, which are complementary cell markers to the data on the foci.
as §6, §7

[3] = system: pH2AX nuclear foci (DNA double-strand breaks); assay: Single toxicity scale: reference concentration Cref and risk group prediction from NpH2AX(24 h)
Experimental: (i) if the reference concentration has not previously been determined by the chemical or biochemical agent to be studied, a cell sample is prepared by dispersion and/or amplification of so-called reference cells (sensitivity group I); a plurality of concentrations within a broad concentration range of said breaking agent (said concentration range ranging for example from nM to mM) is applied for a predetermined period of time (preferably 24 hours) on this cell sample; pH2AX immunofluorescence is performed with DAPI counterstaining which also enables on the same cell sample the analysis of micronuclei for all the concentrations applied.
(ii) Either the mean number of nuclear foci observed with the marker pH2AX at the observation times t and at the concentration C (this mean number being referred to as NpH2AX(t, C)), or the mean number of micronuclei per 100 cells at the observation times t and at the concentration C (this mean number being referred to as NMN(t, C)), or the standard error a corresponding to the error committed on these respective measurements which must be performed on at least 50 nuclei once (Gaussian standard error) or 3 independent experiments of 50 nuclei (standard error of the mean).
(iii) The so-called reference concentration Cref is the concentration giving:
NpH2AX(24 h,Cref)+2σ=2 or indeed NMN(24 h,Cref)+2σ=2%;
If for the cell sample NpH2AX(24 h, Cref)<=2 or NMN(24 h, Cref)<=0.5%, preferably NMN(24 h, Cref)<=1% or even more preferentially NMN(24 h, Cref)<=2%, then the genotoxic risk is considered to be low or described as “Group I”
The experimental data presented in table 4 above were used to determine the reference concentration Cref particularly for Pb(NO3)2 (Cref<1 μM) and CdCl2 (Cref=10 μM).
Table 5 presents numerical examples of correspondence between the single toxicity scale according to the invention and the corresponding clinical signs.

SMILES: O=c1[nH]cc(F)c(=O)[nH]1 [5FU]
- pH2AX(24 h) + 2xSEM (MRC9 (control cells); 5FU 1.00 μM): 1.97 foci
- pH2AX(24 h) (MRC9 (control cells); 5FU 1.00 μM): 1.16 foci
- pH2AX(24 h) + 2xSEM (MRC9 (control cells); 5FU 3.00 μM): 1.93 foci
- pH2AX(24 h) (MRC9 (control cells); 5FU 3.00 μM): 1.38 foci
- pH2AX(24 h) + 2xSEM (MRC9 (control cells); 5FU 10.00 μM): 0.51 foci
- pH2AX(24 h) (MRC9 (control cells); 5FU 10.00 μM): 0.30 foci
- pH2AX(24 h) + 2xSEM (MRC9 (control cells); 5FU 30.00 μM): 2.01 foci
- pH2AX(24 h) (MRC9 (control cells); 5FU 30.00 μM): 1.18 foci
- reference concentration Cref defined by NpH2AX(24 h, Cref)+2σ=2 (MRC9 (control cells); control cell line MRC9): 30 µM
- pH2AX(24 h) + 2xSEM (GM02718 cells; 5FU 1.00 μM): 3.32 foci
- pH2AX(24 h) (GM02718 cells; 5FU 1.00 μM): 2.70 foci
- pH2AX(24 h) + 2xSEM (GM02718 cells; 5FU 3.00 μM): 2.43 foci
- pH2AX(24 h) (GM02718 cells; 5FU 3.00 μM): 2.41 foci
- pH2AX(24 h) + 2xSEM (GM02718 cells; 5FU 10.00 μM): 3.87 foci
- pH2AX(24 h) (GM02718 cells; 5FU 10.00 μM): 2.96 foci
- pH2AX(24 h) + 2xSEM (GM02718 cells; 5FU 30.00 μM): 2.38 foci
- pH2AX(24 h) (GM02718 cells; 5FU 30.00 μM): 2.38 foci
- number of pH2AX foci (GM02718 cells; GM02718, 5FU concentration of 30 μM, 24 h): approximately 2.38 foci
- genotoxic risk group (GM02718 cells; cell line GM02718 at Cref 30 μM): group II
- pH2AX(24 h) + 2xSEM (03HLS cells; 03HLS, 5FU 1.00 μM): 1.49 foci
- pH2AX(24 h) (03HLS cells; 03HLS, 5FU 1.00 μM): 1.40 foci
- pH2AX(24 h) + 2xSEM (03HLS cells; 03HLS, 5FU 3.00 μM): 2.26 foci
- pH2AX(24 h) (03HLS cells; 03HLS, 5FU 3.00 μM): 1.69 foci
- pH2AX(24 h) + 2xSEM (03HLS cells; 03HLS, 5FU 10.00 μM): 1.69 foci
- pH2AX(24 h) (03HLS cells; 03HLS, 5FU 10.00 μM): 1.63 foci
- pH2AX(24 h) + 2xSEM (03HLS cells; 03HLS, 5FU 30.00 μM): 2.59 foci
- pH2AX(24 h) (03HLS cells; 03HLS, 5FU 30.00 μM): 2.00 foci
- number of pH2AX foci (03HLS cells; 03HLS, 5FU concentration of 30 μM, 24 h): ~2.59 foci
- genotoxic risk group (03HLS cells; cell line 03HLS at Cref 30 μM): group II

SMILES: [Cl][Cd][Cl] [CdCl2]
- pH2AX (HMEC cells [1]; 10 μM): 1.9 foci
- pH2AX (HMEC cells [1]; 30 μM): 3.7 foci
- pH2AX (HMEC cells [1]; 100 μM): 8.3 foci
- Micronuclei (HMEC cells [2]; 10 μM): 3.5 per 100 cells
- Micronuclei (HMEC cells [2]; 30 μM): 9 per 100 cells
- Micronuclei (HMEC cells [2]; 100 μM): 12.25 per 100 cells
- Reference concentration Cref ([3]; NpH2AX(24 h) < 2, determined from data of table 4): 10 µM
- Prediction based on algorithm: concentration above which “Group III” risk ([3]; NpH2AX(24 h) > 8): predicted above 100 μM
